System: 485176-168-R4-J1-PDC spheroids with HUVEC/MSC, viability
Assay: Anticancer human tumor 485176-168-R4-J1-PDC patient-derived pancreatic adenocarcinoma cell line growth inhibition [GQUAD]
Settings: for IC50: curve of first compound; for viability, T/C: stronger effect = lower value
Outline: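 Viability of tumor cells grown as complex spheroids with endothelial and stromal cells, exposed to drug combinations. Top concentration at or near clinical Cmax (else 10 microM), diluted in half-log increments.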

[1] = second compound 0.0316 µM, first compound 0.0316 µM
[2] = second compound 0.0316 µM, first compound 0.316 µM
[3] = second compound 0.1 µM, first compound 0.0316 µM
[4] = second compound 0.1 µM, first compound 0.316 µM
[5] = second compound 0.316 µM, first compound 0.0316 µM
[6] = second compound 0.316 µM, first compound 0.316 µM
[7] = second compound 1 µM, first compound 0.0316 µM
[8] = second compound 1 µM, first compound 0.316 µM
[9] = second compound 3.16 µM, first compound 0.0316 µM
[10] = second compound 3.16 µM, first compound 0.316 µM
[11] = second compound 10 µM, first compound 0.0316 µM
[12] = second compound 10 µM, first compound 0.316 µM
[13] = second compound 0.0316 µM, first compound 0.1 µM
[14] = second compound 0.0316 µM, first compound 1 µM
[15] = second compound 0.0316 µM, first compound 3.16 µM
[16] = second compound 0.0316 µM, first compound 10 µM
[17] = second compound 0.1 µM, first compound 0.1 µM
[18] = second compound 0.1 µM, first compound 1 µM
[19] = second compound 0.1 µM, first compound 3.16 µM
[20] = second compound 0.1 µM, first compound 10 µM
[21] = second compound 0.316 µM, first compound 0.1 µM
[22] = second compound 0.316 µM, first compound 1 µM
[23] = second compound 0.316 µM, first compound 3.16 µM
[24] = second compound 0.316 µM, first compound 10 µM
[25] = second compound 1 µM, first compound 0.1 µM
[26] = second compound 1 µM, first compound 1 µM
[27] = second compound 1 µM, first compound 3.16 µM
[28] = second compound 1 µM, first compound 10 µM
[29] = second compound 3.16 µM, first compound 0.1 µM
[30] = second compound 3.16 µM, first compound 1 µM
[31] = second compound 3.16 µM, first compound 3.16 µM
[32] = second compound 3.16 µM, first compound 10 µM
[33] = second compound 10 µM, first compound 0.1 µM
[34] = second compound 10 µM, first compound 1 µM
[35] = second compound 10 µM, first compound 3.16 µM
[36] = second compound 10 µM, first compound 10 µM
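Also: spheroids exposed to compounds for seven days before readout.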
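For viability, T/C in this document: percent viability relative to DMSO vehicle control wells as 100%.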

Question: For `CC[C@@]1(O)C(=O)OCc2c1cc1n(c2=O)Cc2cc3c(CN(C)C)c(O)ccc3nc2-1` + CN(C)c1ccc(Nc2c3ccc(NC(=O)CCN4CCCC4)cc3nc3cc(NC(=O)CCN4CCCC4)ccc23)cc1, which IC50 (second compound 0.0316 µM) is on record?
Answer: 180 nM

Question: And the IC50 (second compound 0.1 µM)?
Answer: 185 nM

Question: And the IC50 (second compound 0.316 µM)?
Answer: 168 nM

Question: What about the IC50 (second compound 1 µM) of the same compound?
Answer: 191 nM

Question: What about the IC50 (second compound 3.16 µM) of the same compound?
Answer: 128 nM

Question: What about the IC50 (second compound 10 µM) of the same compound?
Answer: 232 nM

Question: What about the viability, T/C (second compound 0.0316 µM, first compound 0.000999 µM) of the same compound?
Answer: 97.9%

Question: And the viability, T/C (second compound 0.0316 µM, first compound 0.00316 µM)?
Answer: 88.1%

Question: What about the viability, T/C (second compound 0.0316 µM, first compound 0.00999 µM) of the same compound?
Answer: 83.8%

Question: What about the viability, T/C [1] of the same compound?
Answer: 90.6%

Question: What about the viability, T/C (second compound 0.0316 µM, first compound 0.0999 µM) of the same compound?
Answer: 65%

Question: What about the viability, T/C [2] of the same compound?
Answer: 35.6%

Question: What about the viability, T/C (second compound 0.1 µM, first compound 0.000999 µM) of the same compound?
Answer: 94.8%

Question: And the viability, T/C (second compound 0.1 µM, first compound 0.00316 µM)?
Answer: 106%

Question: And the viability, T/C (second compound 0.1 µM, first compound 0.00999 µM)?
Answer: 95.9%

Question: And the viability, T/C [3]?
Answer: 81%

Question: What about the viability, T/C (second compound 0.1 µM, first compound 0.0999 µM) of the same compound?
Answer: 64.5%

Question: What about the viability, T/C [4] of the same compound?
Answer: 38.4%

Question: And the viability, T/C (second compound 0.316 µM, first compound 0.000999 µM)?
Answer: 97.3%

Question: What about the viability, T/C (second compound 0.316 µM, first compound 0.00316 µM) of the same compound?
Answer: 117%

Question: And the viability, T/C (second compound 0.316 µM, first compound 0.00999 µM)?
Answer: 107%

Question: And the viability, T/C [5]?
Answer: 99.1%

Question: And the viability, T/C (second compound 0.316 µM, first compound 0.0999 µM)?
Answer: 55.7%

Question: What about the viability, T/C [6] of the same compound?
Answer: 43.1%

Question: And the viability, T/C (second compound 1 µM, first compound 0.000999 µM)?
Answer: 89.1%

Question: And the viability, T/C (second compound 1 µM, first compound 0.00316 µM)?
Answer: 97.7%

Question: And the viability, T/C (second compound 1 µM, first compound 0.00999 µM)?
Answer: 99.1%

Question: What about the viability, T/C [7] of the same compound?
Answer: 81.1%

Question: And the viability, T/C (second compound 1 µM, first compound 0.0999 µM)?
Answer: 69.5%

Question: And the viability, T/C [8]?
Answer: 35.8%

Question: And the viability, T/C (second compound 3.16 µM, first compound 0.000999 µM)?
Answer: 104%

Question: What about the viability, T/C (second compound 3.16 µM, first compound 0.00316 µM) of the same compound?
Answer: 99.7%

Question: What about the viability, T/C (second compound 3.16 µM, first compound 0.00999 µM) of the same compound?
Answer: 87.2%

Question: What about the viability, T/C [9] of the same compound?
Answer: 76.6%

Question: And the viability, T/C (second compound 3.16 µM, first compound 0.0999 µM)?
Answer: 52.6%

Question: What about the viability, T/C [10] of the same compound?
Answer: 35.5%

Question: What about the viability, T/C (second compound 10 µM, first compound 0.000999 µM) of the same compound?
Answer: 108%

Question: What about the viability, T/C (second compound 10 µM, first compound 0.00316 µM) of the same compound?
Answer: 98.6%

Question: What about the viability, T/C (second compound 10 µM, first compound 0.00999 µM) of the same compound?
Answer: 88.3%

Question: And the viability, T/C [11]?
Answer: 94.6%

Question: What about the viability, T/C (second compound 10 µM, first compound 0.0999 µM) of the same compound?
Answer: 63.5%

Question: What about the viability, T/C [12] of the same compound?
Answer: 44%

Question: Which results are given for `CC1COCCN1c1cc(C2(S(C)(=N)=O)CC2)nc(-c2ccnc3[nH]ccc23)n1` (stereo unspecified) + CN(C)c1ccc(Nc2c3ccc(NC(=O)CCN4CCCC4)cc3nc3cc(NC(=O)CCN4CCCC4)ccc23)cc1?
Answer: IC50 (second compound 0.0316 µM): 2210 nM; IC50 (second compound 0.1 µM): 1870 nM; IC50 (second compound 0.316 µM): 2110 nM; IC50 (second compound 1 µM): 2070 nM; IC50 (second compound 3.16 µM): 1990 nM; IC50 (second compound 10 µM): 1490 nM; viability, T/C [1]: 92.4%; viability, T/C [13]: 85.2%; viability, T/C [2]: 86.2%; viability, T/C [14]: 75%; viability, T/C [15]: 38.7%; viability, T/C [16]: 15.9%; viability, T/C [3]: 100%; viability, T/C [17]: 81.9%; viability, T/C [4]: 84.6%; viability, T/C [18]: 69.9%; viability, T/C [19]: 33.6%; viability, T/C [20]: 17.6%; viability, T/C [5]: 103%; viability, T/C [21]: 101%; viability, T/C [6]: 97.8%; viability, T/C [22]: 76.3%; viability, T/C [23]: 35.7%; viability, T/C [24]: 15.6%; viability, T/C [7]: 115%; viability, T/C [25]: 85.6%; viability, T/C [8]: 109%; viability, T/C [26]: 70.2%; viability, T/C [27]: 38.5%; viability, T/C [28]: 18%; viability, T/C [9]: 90.8%; viability, T/C [29]: 99.2%; viability, T/C [10]: 97.5%; viability, T/C [30]: 69.1%; viability, T/C [31]: 37.1%; viability, T/C [32]: 15.8%; viability, T/C [11]: 88.2%; viability, T/C [33]: 100%; viability, T/C [12]: 81.2%; viability, T/C [34]: 59.5%; viability, T/C [35]: 32.8%; viability, T/C [36]: 20.3%

Question: With `C=CC(=O)N1CCN(c2nc(=O)n(-c3c(C)ccnc3C(C)C)c3nc(-c4c(O)cccc4F)c(F)cc23)C(C)C1` (stereo unspecified) + Cc1cnc(CNC(=O)c2c(=O)c3ccc(N4CCCN(C)CC4)nc3n3c2sc2ccccc23)cn1 as the compound, how does the IC50 (second compound 0.0316 µM) read?
Answer: > 10000 nM

Question: What about the IC50 (second compound 0.1 µM) of the same compound?
Answer: > 10000 nM

Question: What about the IC50 (second compound 0.316 µM) of the same compound?
Answer: > 10000 nM

Question: What about the IC50 (second compound 1 µM) of the same compound?
Answer: > 10000 nM

Question: What about the IC50 (second compound 3.16 µM) of the same compound?
Answer: < 31.6 nM

Question: And the IC50 (second compound 10 µM)?
Answer: < 31.6 nM

Question: And the viability, T/C [1]?
Answer: 108%

Question: What about the viability, T/C [13] of the same compound?
Answer: 97.2%

Question: And the viability, T/C [2]?
Answer: 111%

Question: What about the viability, T/C [14] of the same compound?
Answer: 97.7%

Question: What about the viability, T/C [15] of the same compound?
Answer: 114%

Question: What about the viability, T/C [16] of the same compound?
Answer: 110%

Question: And the viability, T/C [3]?
Answer: 67.5%

Question: And the viability, T/C [17]?
Answer: 81.6%

Question: And the viability, T/C [4]?
Answer: 86.7%

Question: And the viability, T/C [18]?
Answer: 92.4%

Question: What about the viability, T/C [19] of the same compound?
Answer: 96.4%

Question: And the viability, T/C [20]?
Answer: 92.5%

Question: And the viability, T/C [5]?
Answer: 63.8%

Question: And the viability, T/C [21]?
Answer: 62.5%

Question: What about the viability, T/C [6] of the same compound?
Answer: 83.7%

Question: What about the viability, T/C [22] of the same compound?
Answer: 72.1%

Question: And the viability, T/C [23]?
Answer: 81.6%

Question: What about the viability, T/C [24] of the same compound?
Answer: 79.3%

Question: And the viability, T/C [7]?
Answer: 58%

Question: And the viability, T/C [25]?
Answer: 62.1%

Question: What about the viability, T/C [8] of the same compound?
Answer: 80.1%

Question: What about the viability, T/C [26] of the same compound?
Answer: 52.2%

Question: What about the viability, T/C [27] of the same compound?
Answer: 61.1%

Question: And the viability, T/C [28]?
Answer: 60.7%

Question: And the viability, T/C [9]?
Answer: 49%

Question: And the viability, T/C [29]?
Answer: 45.7%

Question: What about the viability, T/C [10] of the same compound?
Answer: 46.9%

Question: What about the viability, T/C [30] of the same compound?
Answer: 50.1%

Question: What about the viability, T/C [31] of the same compound?
Answer: 54.6%

Question: What about the viability, T/C [32] of the same compound?
Answer: 49.5%

Question: What about the viability, T/C [11] of the same compound?
Answer: 43.6%

Question: What about the viability, T/C [33] of the same compound?
Answer: 47.7%

Question: And the viability, T/C [12]?
Answer: 51%

Question: And the viability, T/C [34]?
Answer: 43.7%

Question: And the viability, T/C [35]?
Answer: 49%

Question: What about the viability, T/C [36] of the same compound?
Answer: 50.3%
